Our source for the pest or weed control values is patent publication US7541374B2, “Malononitrile compounds and use thereof” (Sumitomo Chemical Company, Limited, priority 2004, dated 2009).

Common to all, as to assay type: in vivo
In one test the test system is Culex pipiens pallens. As to the kind of experiment: Test Example 5: larvae in treated water, Culex pipiens pallens. To be noted: 24 h; active ingredient concentration 3.5 ppm in water; twenty last-instar larvae of Culex pipiens pallens; after one day; read-out: rate of dead pests. Here is the method: The formulation obtained according to Formulation Example 5 using the compound of the present invention (1), (2), (3), (4), (5), (6), (7), (8), (9), (10), (11), (12), (13), (14), (15), (16), (17), (18), (19), (20), (21), (22), (23), (25), (27), (28), (29), […], (31), (32), (33), (34), (35), (36), (37), (38), (39), (41), (44), (45), (46), (47) and (48) respectively, was diluted with water so that the active ingredient concentration came to 500 ppm to prepare a pesticidal solution for test.
0.7 ml of above pesticidal solution for test was added to 100 ml of ion exchanged water (active ingredient concentration: 3.5 ppm). Twenty last-instar larvae of Culex pipiens pallens were set free in the solution. After one day, the number of surviving and dead Culex pipiens pallens was examined and the rate of dead pests was calculated.

In another test the test system is Musca domestica. As to the kind of experiment: Test Example 3: treated filter paper with sucrose bait, Musca domestica. Particulars: 500 ppm, 0.7 ml on filter paper; ten female Musca domestica imagoes; after 24 hours; read-out: rate of dead pests. Here is the method: The formulation obtained according to Formulation Example 5 using the compound of the present invention (2), (3), (4), (6), (7), (8), (11), (12), (13), (15), (16), (19), (20), (21), (22), (28), (29), (30), (31), (32), (33), (34), (36), (37), (38) and (39) respectively, was diluted with water so that the active ingredient concentration came to 500 ppm to prepare a pesticidal solution for test.
On the bottom of a polyethylene cup having a diameter of 5.5 cm, a filter paper having the same diameter was laid, and 0.7 ml of the above pesticidal solution for test was added dropwise on the filter paper, followed by putting 30 mg of sucrose on it uniformly as a bait. Ten female Musca domestica imagoes were set free in the polyethylene cup and covered it with a lid. After 24 hours, the number of surviving and dead Musca domestica was examined and the rate of dead pests was calculated.

In a further test the test system is Blattella germanica. As to the kind of experiment: Test Example 4: treated filter paper with sucrose bait, Blattella germanica. To be noted: 144 h; 500 ppm, 0.7 ml on filter paper; two male Blattella germanica imagoes; after 6 days; read-out: rate of dead pests. Here is the method:
The formulation obtained according to Formulation Example 5 using the compound of the present invention (2), (3), (4), (6), (7), (8), (9), (11), (12), (13), (15), (16), (18), (19), (20), (21), (22), (27), (28), (29), (30), (31), (32), (33), (34), (35), (36), (37), (38), (43) and […] respectively, was diluted with water so that the active ingredient concentration came to 500 ppm to prepare a pesticidal solution for test.
On the bottom of a polyethylene cup having a diameter of 5.5 cm, a filter paper having the same diameter was laid, and 0.7 ml of the above pesticidal solution for test was added dropwise on the filter paper, followed by putting 30 mg of sucrose on it uniformly as a bait. Two male Blattella germanica imagoes were set free in the polyethylene cup and covered it with a lid. After 6 days, the number of surviving and dead Blattella germanica was examined and the rate of dead pests was calculated.

For the compound `CC(C)c1nn(CC(C#N)(C#N)CCC(F)(F)F)cc1Br` [compound of the present invention (11), [(4-bromo-3-i-propyl-1H-pyrazole-1-yl)methyl] (3,3,3-trifluoropropyl) malononitrile], the pest or weed control at 3.5 ppm in the test with Culex pipiens pallens is not below 95%. Moreover, the pest or weed control at 500 ppm in the test with Musca domestica was not below 90%; in the test on Blattella germanica, 100%.
In the case of `CC(C)(C)c1nn(CC(C#N)(C#N)CCC(F)(F)F)cc1Br` [compound of the present invention (12), [(4-bromo-3-t-butyl-1H-pyrazole-1-yl)methyl](3,3,3-trifluoropropyl) malononitrile], in the test on Culex pipiens pallens, the pest or weed control at 3.5 ppm is not below 95%. The results for the pest or weed control at 500 ppm in the test with Musca domestica and in the test with Blattella germanica were not below 90% and 100%, respectively.
On to `CC(C)(C)c1nn(CC(C#N)(C#N)CCC(F)(F)F)cc1Cl` [compound of the present invention (13), [(4-chloro-3-t-butyl-1H-pyrazole-1-yl)methyl](3,3,3-trifluoropropyl) malononitrile], for which the pest or weed control at 3.5 ppm in the test with Culex pipiens pallens was not below 95%. The pest or weed control at 500 ppm in the test on Musca domestica was not below 90%; in the test with Blattella germanica, 100%.
In the same order, the values of `N#CC(C#N)(CCC(F)(F)F)Cn1cc(Br)c(C(F)(F)F)n1` [compound of the present invention (15), [(4-bromo-3-trifluoromethyl-1H-pyrazole-1-yl)methyl](3,3,3-trifluoropropyl) malononitrile] are not below 95%, not below 90% and 100%.
For the compound `C=CCC(C#N)(C#N)Cn1cc(Br)c(C(F)(F)F)n1` [compound of the present invention (16)], in the test on Culex pipiens pallens, the pest or weed control at 3.5 ppm is not below 95%. Also, the pest or weed control at 500 ppm was not below 90% in the test on Musca domestica and 100% in the test on Blattella germanica.
Taken in the same sequence, the figures for `N#CC(C#N)(CCC(F)(F)F)Cn1cc(Cl)cn1` [compound of the present invention (19), [(4-chloro-1H-pyrazole-1-yl)methyl](3,3,3-trifluoropropyl) malononitrile] were not below 95%, not below 90% and 100%.
In the same order, the values of `C=CCC(C#N)(C#N)Cn1cc(Cl)cn1` [compound of the present invention (20), allyl [(4-chloro-1H-pyrazole-1-yl)methyl]malononitrile] are not below 95%, not below 90% and 100%.
Regarding `N#CC(C#N)(CCC(F)(F)F)Cn1cc(Br)cn1` [compound of the present invention (21), [(4-bromo-1H-pyrazole-1-yl)methyl](3,3,3-trifluoropropyl) malononitrile], the pest or weed control at 3.5 ppm in the test on Culex pipiens pallens is not below 95%. The pest or weed control at 500 ppm was not below 90% with Musca domestica and 100% in the test on Blattella germanica.
In the same order, the values of `N#CC(C#N)(CCC(F)(F)F)Cn1cc(C(F)(F)F)cn1` [compound of the present invention (22), {[4-(trifluoromethyl)-1H-pyrazole-1-yl]methyl}(3,3,3-trifluoropropyl) malononitrile] are not below 95%, not below 90% and 100%.
In the case of `CC(C)c1ncn(CC(C#N)(C#N)CCC(F)(F)F)n1` [compound of the present invention (28), [(3-i-propyl-1H-1,2,4-triazole-1-yl)methyl](3,3,3-trifluoropropyl) malononitrile], the pest or weed control at 3.5 ppm with Culex pipiens pallens is not below 95%. Besides, the figures for the pest or weed control at 500 ppm in the test on Musca domestica and in the test with Blattella germanica were not below 90% and 100%, respectively.
In the same order, the values of `CC(C)(C)c1ncn(CC(C#N)(C#N)CCC(F)(F)F)n1` [compound of the present invention (29), [(3-t-butyl-1H-1,2,4-triazole-1-yl)methyl](3,3,3-trifluoropropyl) malononitrile] are not below 95%, not below 90% and 100%.
Regarding `C=CCC(C#N)(C#N)Cn1cnc(C(C)(C)C)n1` [compound of the present invention (31), allyl [(3-t-butyl-1H-1,2,4-triazole-1-yl)methyl]malononitrile], the pest or weed control at 3.5 ppm in the test on Culex pipiens pallens was not below 95%. Further, the results for the pest or weed control at 500 ppm with Musca domestica and with Blattella germanica were not below 90% and 100%, respectively.
In the same order, the values of `CC(C)(C)c1nc(Br)n(CC(C#N)(C#N)CCC(F)(F)F)n1` [compound of the present invention (32), [(5-bromo-3-t-butyl-1H-1,2,4-triazole 1-yl)methyl](3,3,3-trifluoropropyl)malononitrile] are not below 95%, not below 90% and 100%.
Consider `N#CC(C#N)(CCC(F)(F)F)Cn1cnc(C(F)(F)F)n1` [compound of the present invention (33), {[3-(trifluoromethyl)-1H-1,2,4-triazole-1-yl]methyl}(3,3,3-trifluoropropyl)malononitrile], for which, in the test on Culex pipiens pallens, the pest or weed control at 3.5 ppm is not below 95%. In addition, the values for the pest or weed control at 500 ppm in the test on Musca domestica and in the test on Blattella germanica were not below 90% and 100%, respectively.
Taken in the same sequence, the figures for `N#CC(C#N)(CCC(F)(F)F)Cn1cnc(C(F)(F)C(F)(F)F)n1` [compound of the present invention (34), {[3-(pentafluoroethyl)-1H-1,2,4-triazole 1-yl]methyl}(3,3,3-trifluoropropyl) malononitrile] were not below 95%, not below 90% and 100%.
For `N#CC(C#N)(CCC(F)(F)F)Cn1ccc(C(F)(F)C(F)(F)F)n1` [compound of the present invention (36), {[3-(pentafluoroethyl)-1H-pyrazole-1-yl]methyl}(3,3,3-trifluoropropyl)malononitrile], in the test on Culex pipiens pallens, the pest or weed control at 3.5 ppm is not below 95%. In addition, the pest or weed control at 500 ppm in the test on Musca domestica is not below 90%; in the test with Blattella germanica, 100%.
Taken in the same sequence, the figures for `N#CC(C#N)(CCC(F)(F)F)Cn1cc(Br)c(C(F)(F)C(F)(F)F)n1` [compound of the present invention (37), [(4-bromo-3-(pentafluoroethyl)-1H-pyrazole-1-yl)methyl](3,3,3-trifluoropropyl) malononitrile] were not below 95%, not below 90% and 100%.
Taken in the same sequence, the figures for `N#CC(C#N)(CCC(F)(F)F)Cn1cnc(C(F)(F)F)c1` [compound of the present invention (38), {[4-(trifluoromethyl)-1H-imidazole-1-yl]methyl}(3,3,3-trifluoropropyl) malononitrile] were not below 95%, not below 90% and 100%.
